Reference: patent publication US20240285773A1, “METHODS OF TREATING MYELODYSPLASTIC SYNDROME AND MONITORING THE TREATMENT” (Geron Corporation, priority 2023, published 2024)
Where “and” joins values, the source holds several entries; their conditions need not be identical. Equal values may be shown once. [nps] = N3'→P5' thiophosphoramidate linkage; {Palm} = palmitoyl lipid

Tested on: RBC transfusion-dependent patients with IPSS low or intermediate-1 risk MDS
Assay: Phase 3 trial: RBC transfusion independence (RBC-TI)
Type: in vivo, human
Conditions: for TI duration, median: Kaplan-Meier
Protocol: Patients were randomly assigned (based on a computer-generated schedule) in a 2:1 ratio to receive imetelstat or placebo, administered intravenously every 4 weeks until treatment discontinuation; crossover was not allowed. Randomization was stratified by prior RBC transfusion burden (≥4 to ≤6 or >6 units over an 8-week period during 16 weeks prior to randomization) and IPSS risk group (low or intermediate-1 risk). The starting dose of imetelstat was 7.5 mg/kg every four weeks. If a patient developed grade 3 or 4 hematologic and nonhematologic toxicities, dosing was held and, if necessary, reduced (Tables 2-4).
The primary end point was rate of RBC-TI for 8 consecutive weeks or longer. Key secondary end points included rate of 24-week TI, duration of TI, and the rate of hematologic response (hematologic improvement-erythroid [HI-E], based on modified International Working Group [IWG] 2006 criteria, and HI-E per revised IWG 2018). Additional secondary end points included relative change in number of RBC transfusions received by patients, relative change in hemoglobin, and safety. The changes in mutational status and in patient-reported fatigue over time (assessed by the Functional Assessment of Chronic Illness Therapy [FACIT] Fatigue Scale) were exploratory end points. Subgroup analyses were performed including baseline presence or absence of RS, prior RBC transfusion burden (≥4 to ≤6 or >6 RBC units/8-weeks during a 16-week period prior to randomization), and low or intermediate-1 IPSS risk categories. Subgroup analyses were also performed, including baseline mutation status as well as telomerase activity (TA), telomere lengths (TL), and human telomerase reverse transcriptase (hTERT) levels. Peripheral blood hematology, bone marrow evaluation, mutation assessment, and cytogenetic evaluation were performed centrally and responses assessed by an independent review committee (IRC). Rate of 1-year RBC-TI was reported as a post hoc analysis.
The data cutoff date for this primary analysis was 1 year after the last patient was randomized. All the efficacy analyses for primary and key secondary end points were conducted in the intent-to-treat population. […] The percentages of patients with a response for the two treatment groups were compared with a stratified Cochran-Mantel-Haenszel test at a two-sided significance level of 0.05 adjusting for stratification factors, prior RBC transfusion burden, and IPSS risk category low or intermediate-1. Multiplicity was accounted for by a sequential gatekeeping approach for the primary and key secondary end points, which were tested sequentially in the prespecified order of 8-week TI, followed by 24-week TI. Durations of RBC-TI were calculated by Kaplan-Meier method. Safety analyses were conducted in the safety population (all patients who received ≥1 dose of trial medication).
Treatment: In the patients from imetelstat treatment group, imetelstat sodium was administered as a 2-hour IV infusion every 4 weeks at 7.5 mg/kg. Supportive care, including RBC and platelet transfusions, myeloid growth factors (e.g., G-CSF (granulocyte colony stimulating factor)), and iron chelation therapy was administered as needed on study per investigator discretion. Control group received corresponding treatment without imetelstat.
End points and Analysis: • Primary end point: 8-week RBC TI. Proportion of patients without any RBC transfusion for at least eight consecutive weeks since entry to the trial (8-week TI). • Key secondary end points: • 24-week RBC TI; proportion of patients without any RBC transfusion for at least 24 consecutive weeks since entry to the trial (24-week TI). • Duration of TI; • Hematologic improvement-Erythroid (HI-E).
The 8-week RBC-TI rate was the proportion of patients without any RBC transfusion during any consecutive 8 weeks (56 days) starting from Study Day 1 until subsequent anti-cancer therapy, if any. […]

[1] = mutated transcription regulation genes
[2] = poor-prognosis genes mutated at baseline

With “Imetelstat: first-in-class telomerase inhibitor; synthetic lipid-conjugated 13-mer oligonucleotide N3′→P5′-thiophosphoramidate (TAGGGTTAGACAA; all [nps], 5' {Palm}, sugars by position and methylation of C not given here)” the “Difference in median RBC-TI duration vs placebo” value (8-week TI responders) was 38.3 week, the “Hazard ratio, duration of RBC-TI vs placebo” value (8-week TI responders) was 0.23 and the “TI duration, median” value (8-week TI responders) was 51.6 weeks. For the same substance, the “TI duration, median” value (8-week TI responders, listed as imetelstat) was 51.6 weeks and 52 weeks, the “≥8-week TI rate” value (>1 baseline mutation) was 42.7% and the “≥24-week TI rate” value (>1 baseline mutation) was 26.7%. For the same substance, the “≥8-week TI rate” value (>2 baseline mutations) was 45.5%, the “≥24-week TI rate” value (>2 baseline mutations) was 33.3% and the “≥8-week TI rate” value (>3 baseline mutations) was 55.6%. For the same substance, the “≥24-week TI rate” value (>3 baseline mutations) was 33.3%, the “8-week TI response” value (ASXL1 mutations) was 5/18 and the “8-week TI response rate” value (ASXL1 mutations) was “(27.8) %”. For the same substance, the “≥24-week TI rate” value (ASXL1 mutations) was 11.1%, the “8-week TI response rate” value (ASXL1 mutations, listed as imetelstat) was 27.8% and the “≥8-week TI rate” value (CUX1 mutations) was 35.7%. The “≥24-week TI rate” value (CUX1 mutations) was 14.3%, the “≥8-week TI rate” value (DNMT3A mutations) was 31.6% and the “≥24-week TI rate” value (DNMT3A mutations) was 26.3%. The “8-week TI response” value (ETV6 mutations) was 1/2, the “8-week TI response rate” value (ETV6 mutations) was “(50.0) %” and the “8-week TI response rate” value (ETV6 mutations, listed as imetelstat) was 50%. For the same substance, the “8-week RBC-TI rate” value (IPSS intermediate-1 risk) was 40%, the “8-week RBC-TI rate” value (IPSS low risk) was 40% and the “8-week TI rate” value (ITT N=118) was 39.8% and 40%. For the same substance, the “16-week TI rate” value (ITT N=118) was 31.4%, the “16-week TI, patients” value (ITT N=118) was 37 n and the “24-week TI rate” value (ITT N=118) was 28%. For the same substance, the “24-week TI, patients” value (ITT N=118) was 33 n, the “≥1-year TI rate” value (ITT N=118) was 17.8% and 18% and the “≥1-year TI, patients” value (ITT N=118) was 21 n. The “8-week TI, patients” value (ITT N=118, 7.5 mg/kg IV every 4 weeks) was 47 n, the “8-week TI response” value (RUNX1 mutations) was 0/2 and the “8-week TI response rate” value (RUNX1 mutations) was “(0) %”. The “≥8-Week RBC-TI” value (SF3B1 hot-spot A744P) was 100%, the “≥8-Week RBC-TI” value (SF3B1 hot-spot E622D) was 25.0% and the “≥8-Week RBC-TI” value (SF3B1 hot-spot E783K) was 50.0%. The “≥8-Week RBC-TI” value (SF3B1 hot-spot H662Q/N/D/Y) was 58.3%, the “≥8-Week RBC-TI” value (SF3B1 hot-spot K666R/T/Q/N) was 33.3% and the “≥8-Week RBC-TI” value (SF3B1 hot-spot K700E) was 43.9%. The “≥8-Week RBC-TI” value (SF3B1 hot-spot R625C/L/G) was 57.1%, the “≥8-Week RBC-TI” value (SF3B1 hot-spot T663P) was 100% and the “≥8-week TI rate” value (TET2 mutations) was 50%. For the same substance, the “≥24-week TI rate” value (TET2 mutations) was 40%, the “8-week TI response” value (TP53 mutations) was 2/2 and the “8-week TI response rate” value (TP53 mutations) was “(100) %”. For the same substance, the “≥8-week TI rate” value (baseline SF3B1 mutations) was 48.8%, the “≥24-week TI rate” value (baseline SF3B1 mutations) was 35.4% and the “8-week RBC-TI responders with a single continuous RBC-TI period” value (in vivo) was 83%. The “8-week TI responders who went on to achieve 24-week TI” value (in vivo) was “Approximately 70%”, the “≥1-year TI among ≥8-week TI responders” value (in vivo) was 44.7% and 45% and the “≥1-year TI among ≥24-week TI responders” value (in vivo) was 63.6% and 64%. The “≥8-week TI rate” value (mutated RNA spliceosome genes) was 43.8%, the “≥24-week TI rate” value (mutated RNA spliceosome genes) was 30.2% and the “≥8-week TI rate” value (mutated epigenetic modifiers) was 37.7%. For the same substance, the “≥24-week TI rate” value (mutated epigenetic modifiers) was 27.5%, the “≥8-week TI rate” value (mutated receptors/kinases) was 80.0% and the “≥24-week TI rate” value (mutated receptors/kinases) was 80.0%. For the same substance, the “≥8-week TI rate” value [1] was 40.0%, the “≥24-week TI rate” value [1] was 20.0% and the “Median TI duration” value (patients who achieved 24-week TI) was 80.0 weeks. The “8-week RBC-TI rate” value (patients with RS) was 45%, the “24-week RBC-TI rate” value (patients with RS) was 33% and the “Difference vs placebo in TI ≥24 weeks” value (patients with RS) was 28%. The “8-week RBC-TI, patients” value (patients with RS (of 73)) was 33 patients, the “8-week RBC-TI rate” value (patients without RS) was 32% and the “24-week RBC-TI rate” value (patients without RS) was 20%. For the same substance, the “Difference vs placebo in TI ≥24 weeks” value (patients without RS) was 21%, the “8-week RBC-TI, patients” value (patients without RS (of 44)) was 14 patients and the “8-week TI response” value [2] was 7/22. The “8-week TI response rate” value [2] was “(31.8) %”, the “≥24-week TI rate” value [2] was 9.1% and the “8-week TI response rate” value (poor-prognosis genes mutated at baseline, listed as imetelstat) was 31.8%. For the same substance, the “8-week RBC-TI rate” value (prior burden >6 units/8 weeks) was 34%, the “8-week RBC-TI, patients” value (prior burden >6 units/8 weeks (of 56)) was 19 patients and the “8-week RBC-TI rate” value (prior burden ≥4 to ≤6 units/8 weeks) was 45%. For the same substance, the “8-week RBC-TI, patients” value (prior burden ≥4 to ≤6 units/8 weeks (of 62)) was 28 patients and the “Median duration of TI” value (≥1-year TI responders) was 123 weeks.
